The MIC is the least concentration at which growth counts as inhibited.

Converted amounts (≈) assume the structure as drawn.

The subject of the experiment is SAUR 9218. Kind of experiment: MIC by standard agar dilution method. In kind it is cell-based. Particulars: Mueller Hinton agar, incubated overnight at 35° C., lowest concentration that inhibits visible growth. The method, then: MIC Test Method The in vitro MICs of test compounds were determined by a standard agar dilution method. A stock drug solution of each analog was prepared in the preferred solvent, usually DMSO:H2O (1:3). Serial 2-fold dilutions of each sample are made using 1.0 ml aliquots of sterile distilled water. To each 1.0 ml aliquot of drug was added 9 ml of molten Mueller Hinton agar medium. The drug-supplemented agar was mixed, poured into 15×100 mm petri dishes, and allowed to solidify and dry prior to inoculation. Vials of each of the test organisms are maintained frozen in the vapor phase of a liquid nitrogen freezer. Test cultures are grown overnight at 35° C. on the medium appropriate for the organism. Colonies are harvested with a sterile swab, and cell suspensions are prepared in Trypticase Soy broth (TSB) to equal the turbidity of a 0.5 McFarland standard. A 1:20 dilution of each suspension was made in TSB. The plates containing the drug supplemented agar are inoculated with a 0.001 ml drop of the cell suspension using a Steers replicator, yielding approximately 10^4 to 10^5 cells per spot. The plates are incubated overnight at 35° C. Following incubation the Minimum Inhibitory Concentration (MIC μg/ml), the lowest concentration of drug that inhibits visible growth of the organism, was read and recorded.
For orientation: In agar dilution, organisms are placed on agar that contains the substance at set levels.
As for `CN(c1ccc(Cl)cc1)S(=O)(=O)c1ccc(C(=O)Nc2ccc(Br)cc2-c2noc(=S)[nH]2)cc1` [N-[4-bromo-2-(5-thioxo-4,5-dihydro-1,2,4-oxadiazol-3-yl)phenyl]-4-{[4-chloro(methyl)anilino]sulfonyl}benzamide], the MIC was 16 µg/mL (≈ 27.6 µM).

In turn, `O=C(Nc1ccc(Br)cc1C1=Nc2ccccc2S(=O)(=O)N1)c1cccc(S(=O)(=O)N2CCc3cc(Cl)ccc32)c1` [Example 14, N-[4-Bromo-2-(1,1-dioxido-2H-1,2,4-benzothiadiazin-3-yl)phenyl]-3-[(5-chloro-2,3-dihydro-1H-indol-1-yl)sulfonyl]benzamide] registered an MIC of 64 µg/mL (≈ 95.2 µM). This MIC lies about 4-fold higher than the previous one.

For the compound `O=C(Nc1ccc(Br)cc1-c1noc(=O)[nH]1)c1ccc(S(=O)(=O)N2CCc3cc(Cl)ccc32)cc1` [N-[4-bromo-2-(5-oxo-4,5-dihydro-1,2,4-oxadiazol-3-yl)phenyl]-4-[(5-chloro-2,3-dihydro-1H-indol-1-yl)sulfonyl]benzamide], inhibition of growth (MIC) required 8 µg/mL (≈ 13.9 µM).

`O=C(Nc1ccc(Br)cc1-c1nnn[nH]1)c1ccc(S(=O)(=O)N2CCc3ccccc32)cc1` [N-[4-bromo-2-(1H-1,2,3,4-tetraazol-5-yl)phenyl]-4-(2,3-dihydro-1H-indol-1-ylsulfonyl)benzamide] gave an MIC of 2 µg/mL (≈ 3.81 µM). This MIC is about 4-fold lower than that of the compound before.

In the case of `O=C(Nc1ccc(Br)cc1-c1noc(=O)[nH]1)c1cccc(SCc2ccccc2)c1` [Example 2, 3-(Benzylthio)-N-[4-bromo-2-(5-oxo-4,5-dihydro-1,2,4-oxadiazol-3-yl)phenyl]benzamide], the MIC stood at 8 µg/mL (≈ 16.6 µM).

The compound `O=C(Nc1ccc(Br)cc1C1=Nc2ccccc2S(=O)(=O)N1)c1cccc(S(=O)(=O)N2CCOCC2)c1` [Example 11, N-[4-Bromo-2-(1,1-dioxido-2H-1,2,4-benzothiadiazin-3-yl)phenyl]-3-(morpholin-4-ylsulfonyl)benzamide] had an MIC of 16 µg/mL (≈ 26.4 µM).

Regarding `O=C(Nc1ccc(Br)cc1-c1nnn[nH]1)c1ccc(S(=O)(=O)N2CCc3cc(Cl)ccc32)cc1` [N-[4-bromo-2-(1H-1,2,3,4-tetraazol-5-yl)phenyl]-4-[(5-chloro-2,3-dihydro-1H-indol-1-yl)sulfonyl]benzamide], it took 4 µg/mL (≈ 7.14 µM) to inhibit growth (MIC).

`CN(c1ccc(Cl)cc1)S(=O)(=O)c1ccc(C(=O)Nc2ccc(Br)cc2-c2nnn[nH]2)s1` [Example 29, N-[4-Bromo-2-(1H-tetraazol-5-yl)phenyl]-5-{[(4-chlorophenyl)(methyl)amino]sulfonyl}thiophene-2-carboxamide] yielded a minimum inhibitory concentration (MIC) of 8 µg/mL (≈ 14.4 µM).

For the compound `O=C(Nc1ccc(Br)cc1-c1n[nH]c(=O)o1)c1ccc(S(=O)(=O)N2CCc3cc(Cl)ccc32)cc1` [N-[4-bromo-2-(5-oxo-4,5-dihydro-1,3,4-oxadiazol-2-yl)phenyl]-4-[(5-chloro-2,3-dihydro-1H-indol-1-yl)sulfonyl]benzamide], the MIC was more than 128 µg/mL.

Take `CN(c1ccc(Cl)cc1)S(=O)(=O)c1ccc(C(=O)Nc2ccc(Br)cc2-c2n[nH]c(=S)o2)cc1` [Example 8, N-[4-Bromo-2-(5-thioxo-4,5-dihydro-1,3,4-oxadiazol-2-yl)phenyl]-4-{[(4-chlorophenyl)(methyl)amino]sulfonyl}benzamide]: 4 µg/mL (≈ 6.9 µM) was the least that counted as inhibitory (MIC).

The compound `CC(C)Oc1cccc(C(=O)Nc2ccc(Br)cc2-c2noc(=O)[nH]2)c1` [Example 15, N-[4-Bromo-2-(5-oxo-4,5-dihydro-1,2,4-oxadiazol-3-yl)phenyl]-3-isopropoxybenzamide] gave an MIC of 32 µg/mL (≈ 76.5 µM).

`CN(c1ccc(Cl)cc1)S(=O)(=O)c1coc(C(=O)Nc2ccc(Br)cc2-c2nnn[nH]2)c1` [Example 27] showed an MIC of 16 µg/mL (≈ 29.8 µM). Compared with the last compound, the MIC is about 2-fold lower.

Take `O=C(Nc1ccc(I)cc1-c1nnn[nH]1)c1cc2cccc(S(=O)(=O)c3ccccc3)c2[nH]1` [Example 24, N-[4-iodo-2-(1H-tetraazol-5-yl)phenyl]-7-(phenylsulfonyl)-1H-indole-2-carboxamide]: the MIC came to 0.5 µg/mL (≈ 0.877 µM).

Regarding `CN(c1ccc(Cl)cc1)S(=O)(=O)c1cccc(C(=O)Nc2ccc(Br)cc2C(=O)NS(C)(=O)=O)c1` [Example 3, N-(4-Bromo-2-{[(methylsulfonyl)amino]carbonyl}phenyl)-3-{[(4-chlorophenyl)(methyl)amino]sulfonyl}benzamide], the MIC was found to be 2 µg/mL (≈ 3.33 µM). Against the preceding compound, the MIC is about 4-fold higher.

`Cc1ccc(S(=O)(=O)NC(=O)c2cc(Br)ccc2NC(=O)c2cccc(S(=O)(=O)N(C)c3ccc(Cl)cc3)c2)cc1` [Example 4, N-[4-Bromo-2-({[(4-methylphenyl)sulfonyl]amino}carbonyl)phenyl]-3-{[(4-chlorophenyl)(methyl)amino]sulfonyl}benzamide]: the MIC came out at 8 µg/mL (≈ 11.8 µM).

`O=C(Nc1ccc(Br)cc1-c1nc2ccccc2c(=O)[nH]1)c1cccc(S(=O)(=O)N2CCOCC2)c1` [Example 13, N-[4-Bromo-2-(4-oxo-3,4-dihydroquinazolin-2-yl)phenyl]-3-(morpholin-4-ylsulfonyl)benzamide] came in with an MIC of 4 µg/mL (≈ 7.02 µM).

On to `CN(c1ccc(Cl)cc1)S(=O)(=O)c1ccc(C(=O)Nc2ccc(Br)cc2-c2nnn[nH]2)cc1` [Example 5, N-[4-Bromo-2-(1H-tetraazol-5-yl)phenyl]-4-{[(4-chlorophenyl)(methyl)amino]sulfonyl}benzamide], for which it took 16 µg/mL (≈ 29.2 µM) to inhibit growth (MIC). This MIC lies about 4-fold higher than the previous one.

`CN(c1ccc(Cl)cc1)S(=O)(=O)c1cccc(C(=O)Nc2ccc(Br)cc2-c2noc(=O)[nH]2)c1` [Example 9, N-[4-Bromo-2-(5-oxo-4,5-dihydro-1,2,4-oxadiazol-3-yl)phenyl]-3-{[(4-chlorophenyl)(methyl)amino]sulfonyl}benzamide] displayed an MIC of 16 µg/mL (≈ 28.4 µM).

The compound `N#Cc1ccc(NC(=O)c2cccc(S(=O)(=O)N3CCc4cc(Cl)ccc43)c2)c(C(=O)Nc2nccs2)c1` [Example 26, 2-({3-[(5-Chloro-2,3-dihydro-1H-indol-1-yl)sulfonyl]benzoyl}amino)-5-cyano-N-(1,3-thiazol-2-yl)benzamide] showed an MIC of 8 µg/mL (≈ 14.2 µM). Compared with the last compound, the MIC is about 2-fold lower.

The compound `O=C(Nc1ccc(Br)cc1-c1nc2ccccc2c(=O)[nH]1)c1cccc(S(=O)(=O)N2CCc3cc(Cl)ccc32)c1` [Example 12, N-[4-Bromo-2-(4-oxo-3,4-dihydroquinazolin-2-yl)phenyl]-3-[(5-chloro-2,3-dihydro-1H-indol-1-yl)sulfonyl]benzamide] showed an MIC of 4 µg/mL (≈ 6.29 µM).

As for `CN(c1ccc(Cl)cc1)S(=O)(=O)c1csc(C(=O)Nc2ccc(Br)cc2-c2nnn[nH]2)c1` [Example 28, N-[4-Bromo-2-(1H-tetraazol-5-yl)phenyl]-4-{[(4-chlorophenyl)(methyl)amino]sulfonyl}thiophene-2-carboxamide], the minimum inhibitory concentration (MIC) stood at 16 µg/mL (≈ 28.9 µM).

In the case of `COc1cccc(C(=O)Nc2ccc(Br)cc2-c2nnn[nH]2)c1` [N-[4-bromo-2-(1H-tetraazol-5-yl)phenyl]-3-methoxybenzamide], inhibition of growth (MIC) required 64 µg/mL (≈ 171 µM).

`O=C(Nc1ccc(Br)cc1-c1noc(=O)[nH]1)c1ccc(S(=O)(=O)N2CCc3ccccc32)cc1` [Example 7, N-[4-Bromo-2-(5-oxo-4,5-dihydro-1,2,4-oxadiazol-3-yl)phenyl]-4-(2,3-dihydro-1H-indol-1-ylsulfonyl)benzamide] returned an MIC of 16 µg/mL (≈ 29.6 µM).

In turn, `CN(c1ccc(Cl)cc1)S(=O)(=O)c1ccc(C(=O)Nc2ccc(Br)cc2NS(=O)(=O)C(F)(F)F)cc1` showed an MIC of 32 µg/mL (≈ 51 µM).

`CN(c1ccc(Cl)cc1)S(=O)(=O)c1ccc(C(=O)Nc2ccc(Br)cc2-c2n[nH]c(=O)o2)cc1` [N-[4-bromo-2-(5-oxo-4,5-dihydro-1,3,4-oxadiazol-2-yl)phenyl]-4-{[4-chloro(methyl)anilino]sulfonyl}benzamide] registered an MIC of 2 µg/mL (≈ 3.55 µM). Compared with the last compound, the MIC is about 16-fold lower.

These data come from US20040142981A1, “Antibacterial benzoic acid derivatives” (priority 2002, published 2004).
